Molecules are shown by their SMILES. “Also recorded” adds a separate entry of the source.

One data set has as its system cucumber. The experiment in a line: Tolerance of cucumber plants (leaves, roots) to ozone water. The format is in vivo. As for the experimental part: Mildewed cucumber leaves were collected from a garden adjacent to the research unit with which 6 outdoor cucumber seedlings were infected. After the verification of the manifestation of an infection, 18 new seedlings were grown up to the stage of the first plant leaf, at which point the plants were divided in onion boxes into 3 groups in the middle of each of which 2 ill plants were placed. The control plants were sprayed three times a week with water. The second test group was sprayed three times a day with ozone water (800 ppb) and the third test group was sprayed mornings and evenings. The sprayings were carried out with large droplets, which remained on the surface of the plant 2-4 hours. At night, the plants were covered with a monochrome plastic in order to maintain a high humidity. The sprayings took place over 6 weeks.
(§1) While the preliminary test was still underway, 20 cucumber seedlings were grown to the stage of a single leaf, the seedlings then being divided up into 5 boxes. The test groups were • 1. entirely untreated • 2. water spraying three times a week and watering of pot with ozone water for 3 and for 2 weeks before the conclusion of the test • 3. ozone spraying 3 three times a week • 4. ozone spraying 5 times a week at 7 a.m. and 4 p.m. • 5. ozone spraying 5 times a week at 7 a.m., 12 p.m. and 4 p.m.

Another data set deals with Fusarium oxysporum. The experiment in a line: Fusarium oxysporum test 1: fungal suspension in ozone water, plated on PDA. In kind it is cell-based. To be noted: for culture colonies in the plate: 10 minutes. As for the experimental part: A plateful of F. oxyxsporum fungus without agar was homogenized with 100 ml of water. 10 ml and 1 ml of the fungal suspension were added to 100 ml of sterile water and 100 ml of 800 ppb ozone water. After 10 minutes, the inoculums from each treatment were placed in 3 PDA plates.

Another data set deals with cucumber powdery mildew. Description: Actual test, control of cucumber powdery mildew (April-May 2019). The format is in vivo, Erysiphe sp. As for the experimental part:
as §1
The test area, in which mesh-bottomed pots were planted in peat with 4 pots in each box, was surrounded with the sick seedlings of the preliminary test, which were at a distance of approx. 60 cm from the test plants.

For a further data set, the system named is Pythium ultimum. The experiment in a line: Pythium ultimum test 1: fungal culture soaked with ozone water. In kind it is cell-based. How it is done:
In a first dish, a fungal culture was soaked for 30 minutes with sterile water when the Pythium fungus had grown to a distance of approx. 2 cm away from the small piece of inoculating agar at the rim of the dish, which was removed with a large cork borer before the water treatment. The fungus grew to fill the dish within 16 hours during the water treatment. In a second dish, an identical treatment with ozone water (800 ppb) was carried out. A thicker fungal mycelium was visible in the Pythium culture around the site of inoculation, from which the fungus only had time to grow 2 cm before the ozone treatment. The ozone destroyed the youngest tips of the hyphae of the fungus and the hyphae that had grown apart from the agar, but had no effect on hyphae that had already grown partially into the agar.

In data set [1] the test system is Grey mould (Botrytis cinerea). The experiment in a line: Grey mould test 2: almost dry old fungal growth rinsed into ozone water. The format is cell-based. As for the experimental part: A petri dish, (a CMA plate, in which cabbage discs stimulate the formation of conidia), comprising the almost dry old fungal growth and the endophytic bacteria from the cabbage therein), grey mould spores were rinsed into 100 ml of water. 1 and 10 ml of this water were pipetted into 100 ml of water and 100 ml of ozone water. 0.5 ml of each of these water mixtures was pipetted into 3 petri dishes in order to determine the vitality of the grey mould.

Data set [2] has as its system Grey mould (Botrytis cinerea). Description: Grey mould test 1: spores rinsed from cabbage in ozone water, plated on PDA. The format is cell-based. To be noted: taken from wet cabbage / grown at very high humidity. As for the experimental part:
Grey mould spores rinsed from cabbage were homogenized in approximately 200 ml of water. 10 ml and 1 ml of this fungal suspension were added to 100 ml of water and 100 ml of ozone water (800 ppb). After 10 and 60 minutes, specimens from each treatment were placed into 3 PDA plates.

The test system of another data set is crops. To be noted: 80-100 ppb in the air; cited from earlier work.
A further data set concerns grey mould. The experiment in a line: Grey mould test series on surfaces (wet versus dried fungus). In kind it is cell-based, Botrytis cinerea. The conditions noted are these: ozone 2500 ppb in the air; grey mould washed from rotting cabbage, sprayed on cabbage, plastic, glass, redcurrant branch. An excerpt: Grey mould turns out to be surprising against ozone. […] When test set-ups yielded the same result the following year, in which grey mould spores and the associated mycelium fragments washed from the surface of moist, rotting cabbage survived on a plastic surface in an ozone spray and in a concentrated ozone solution, it was completely clear that the surfaces of the mycelium and spores of grey mould are completely resistant to ozone. […] In nature, grey mould survives until the following year on the surfaces of rotten plants such as berries and succulent leaves, where they form conidia in conidiophores in moist conditions. In wet conditions, the spores hardly spread with the wind; however, once dried by the sun, the spores of the growth break free to be carried a distance of at least 50 metres by the wind if the wind speed exceeds 2 m/s. Dried mycelium and conidiophores are readily identifiable under a microscope by their structure compared with completely turgid growths.

Another data set concerns powdery mildew. Description: Control of powdery mildew infection by gaseous ozone or ozone solution. The format is in vivo. To be noted: ozone in gaseous form, constant exposure. As for the experimental part: The spores of powdery mildew have an exceptionally high moisture content compared to the spores of other fungal diseases, which is why merely a very high air humidity suffices for a spore infection, yet the conidium is destroyed quickly when engulfed by a water droplet. The spores of the fungus spread during the day and make the plant ill at night. Depending on the species of the powdery mildew, the infection stage takes 6-12 hours. […] Using this knowledge, it is possible to construct technical applications for implementation in greenhouses as well as outdoors for the control of powdery mildew disease infections. Based on this solution, many other plant pests which spread first to the surfaces of the plants as dry spores that have acclimated to the shining of the sun during their evolution (for example grey mould) can also be controlled.

`O=[O+][O-]` [ozone]: in the data set with cucumber (actual test), the “state of roots compared with the untreated test group” value is “undamaged”. Moreover, in the data set with cucumber (actual test, ozone sprayings, any stage), the “damage to the leaves of the plants” value is “did not damage the leaves”. For the same compound, the “impact on development of fresh weight” value with cucumber (actual test, watering of the roots with ozone water) is “did not have an impact”. In addition, the “damage to the root system of cucumber or weakening of the plant” value in the data set on cucumber (approximately 800 ppb in the water, stem bottoms watered twice a week, evaluated a week after last treatment, preliminary tests) is listed as “did not cause any damage”. The figures for the “culture colonies in the plate” value with Fusarium oxysporum (1 ml of inoculum in 100 ml of 800 ppb ozone water) and in the data set on Fusarium oxysporum (10 ml of inoculum in 100 ml of 800 ppb ozone water) were 1-3 colonies and 8-17 colonies, respectively. Besides, the “sensitivity of spores (conidia) and mycelium of Fusarium fungus” value in the data set with Fusarium oxysporum (in a solution and in sprays on surfaces of dry materials) is “completely sensitive”. For the same compound, the “sensitivity of spores (conidia) of powdery mildew” value in the data set with cucumber powdery mildew (in vivo) is “extremely sensitive”. In addition, the “survival of powdery mildew mycelium growing on the surface of the plant” value in the data set with cucumber powdery mildew (ozone concentration of the spraying 340 ppb) is listed as “survives”. For the same compound, in the data set on Pythium ultimum, the “sensitivity of Pythium fungus (mycelium, zoospores)” value is on record as “sensitive”. In addition, the “sensitivity of dried grey mould mycelium and spores” value in data set [1] is listed as “sensitive”. Also, the “sensitivity of grey mould mycelium and spores grown wet” value in [2] is “ozone-resistant; also recorded: completely tolerant”. The “effect of constant exposure on leaves” value in the data set with crops was “causes chlorosis in leaves”. Also, the “killing of spores and mycelium of grey mould” value in the data set with grey mould was “not able to kill off”. The “effect on powdery mildew infection” value with powdery mildew was “satisfactory effect”.

The values are drawn from patent US20220248614A1, “METHOD FOR ELIMINATING PATHOGENS IN PLANT GROWING AND CORRESPONDING SYSTEM” (priority 2019, published 2022).
